The values that follow are results of earlier work, collected in patent US20060251704A1, “Methods and devices for efficacious treatment of aphthous ulcers” (priority 2005, published 2006).

In this series the test system is aphthous ulcers (RAS). The settings on record: by the 6th day.

SMILES strings stand for the structures.

Regarding `CC(C)c1ccc2oc3nc(N)c(C(=O)O)cc3c(=O)c2c1` [amlexanox], for the setting “vehicle control 54.7%”, the “patients with healed ulcers” value is given as 65.6%. The patients pain free (patients with RAS, control group 72.8%) is listed as 82.8%.
